# Patent EP0054974A1, “Imidazolylpropanol compounds and their acid addition salts, and production and use thereof” (SUMITOMO CHEMICAL COMPANY, LIMITED, priority 1980, dated 1982)
# Legend:
# Trichophyton rubrum = assay: Antifungal activity in vitro, minimum inhibitory concentration on Sabouraud's agar medium; assay type: cell-based
# Text: (§1) The antifungal activity of some representatives of the imidazolylpropanol compounds (I) in in vitro test is as shown below.
# Candida albicans Ohta = assay: as above; assay type: cell-based
# Text: as §1
# [1] = tested on: Candida albicans MTU12001; assay: as above; assay type: cell-based
# Text: as §1
# Candida albicans KB-8 = assay: Antifungal activity in vivo (decrease of cells in the kidney of Candida-infected mice); settings: for log reduction at 20 mg/kg: number of cells in kidney, 24 hours after infection; for Medicated group, number of cells in kidney: male DDY mice infected i.v. with Candida albicans KB-8, kidneys 24 hours after infection
# Experimental: The in vivo test of the antifungal activity with the said representative ones of the imidazolylpropanol compounds (I) was carried out in the following manner:
# Candida albicans KB-8 cultured on the Sabroud's. agar plate admixed with blood in a concentration of 5 % by weight at 30°C for 4 days was suspended in physiologically saline solution to make a number of cells of 10^7/ml. The suspension was intravenously injected through the tail vein into 5 week old male DDY mice at a dose of 0.2 ml per mouse. […]
# After 24 hours from the infection, the animals were killed and the kidneys were taken out. Each kidney was admixed with sea sand and smashed. After diluting with physiologically saline solution to give 5 times in volume, the dilution was centrifuged at 900 rpm for 5 minutes. A certain amount of the supernatant was scattered on a Sabroud's agar plate and cultured at 37°C for 48 hours. Then, the number of colonies was counted, the number of cells per one gram of the kidney was calculated, and the difference between the calculated numbers in the medicated group and in the non-medicated group was expressed by a logarithmic value.
# [2] = Candida albicans, KB8, po, dose 20 mg/kg per os, read-out: Medicated/Non-medicated (logarithmic value)
MIC (Trichophyton rubrum),MIC (Candida albicans Ohta),MIC [1],SMILES,log reduction at 20 mg/kg (Candida albicans KB-8; [2]),"Medicated group, number of cells in kidney (Candida albicans KB-8; dose 20 mg/kg per os)","log reduction at 100 mg/kg (Candida albicans KB-8; Candida albicans, KB8, po, 24 h, read-out: Medicated/Non-medicated (logarithmic value))","Medicated group, number of cells in kidney (Candida albicans KB-8; dose 100 mg/kg per os)"
10 µg/mL,5 µg/mL,0.15 µg/mL,OC(CSc1ccccc1)(Cn1ccnc1)c1ccc(Cl)cc1Cl (stereo not drawn),,,,
5 µg/mL,0.6 µg/mL,0.15 µg/mL,Cc1cccc(SCC(O)(Cn2ccnc2)c2ccc(Cl)cc2Cl)c1 (stereo not drawn),,,,
20 µg/mL,5 µg/mL,0.3 µg/mL,COc1ccc(SCC(O)(Cn2ccnc2)c2ccc(Cl)cc2Cl)cc1 (stereo not drawn),,,,
40 µg/mL,2.5 µg/mL,0.3 µg/mL,OC(CSc1ccc(F)cc1)(Cn1ccnc1)c1ccc(Cl)cc1Cl (stereo not drawn),,,,
5 µg/mL,2.5 µg/mL,0.075 µg/mL,OC(CSCc1ccccc1)(Cn1ccnc1)c1ccc(Cl)cc1Cl (stereo not drawn),,,,
20 µg/mL,40 to 100 µg/mL,10 µg/mL,OC(CSc1ccncc1)(Cn1ccnc1)c1ccc(Cl)cc1Cl (stereo not drawn),,,,
5 µg/mL,40 µg/mL,0.6 µg/mL,CC(C)SCC(O)(Cn1ccnc1)c1ccc(Cl)cc1Cl (stereo not drawn),,,,
5 µg/mL,40 µg/mL,0.6 µg/mL,CC(C)CCOCC(O)(Cn1ccnc1)c1ccc(Cl)cc1Cl (stereo not drawn),,,,
0.6 µg/mL,40 µg/mL,10 µg/mL,OC(COCc1ccccc1)(Cn1ccnc1)c1ccc(Cl)cc1Cl (stereo not drawn),,,,
2.5 µg/mL,40 µg/mL,0.6 µg/mL,OC(COCCc1ccccc1)(Cn1ccnc1)c1ccc(Cl)cc1Cl (stereo not drawn),,,,
5 µg/mL,20 µg/mL,1.25 µg/mL,OC(COCCSc1ccccc1)(Cn1ccnc1)c1ccc(Cl)cc1Cl (stereo not drawn),,,,
5 µg/mL,20 µg/mL,1.25 µg/mL,OC(COc1ccccc1Cl)(Cn1ccnc1)c1ccc(Cl)cc1Cl (stereo not drawn),,,,
,,,OC(CNC1CCCCC1)(Cn1ccnc1)c1ccc(Cl)cc1Cl (stereo not drawn),1.27,8.91x10^3 cell/g,,
10 µg/mL,40 to 100 µg/mL,1.25 µg/mL,C=CCOCC(O)(Cn1ccnc1)c1ccc(Cl)cc1Cl (stereo not drawn) [CH2=CH-CH2-O-],,,,
0.6 µg/mL,40 µg/mL,5 µg/mL,"CCCCOCC(O)(Cn1ccnc1)c1ccc(Cl)cc1Cl (stereo not drawn) [CH3-(CH2)3-O-, 3-n-butyloxy-2-(2,4-dichlorophenyl)-l-(imidazol-l-yl)-2-propanol]",,,,
0.6 µg/mL,1.25 µg/mL,0.075 µg/mL,CCCCSCC(O)(Cn1ccnc1)c1ccc(Cl)cc1Cl (stereo not drawn) [CH3-(CH2)3-S-],,,,
1.25 µg/mL,5 µg/mL,1.25 µg/mL,CCCCCSCC(O)(Cn1ccnc1)c1ccc(Cl)cc1Cl (stereo not drawn) [CH3-(CH2)4-S-],,,,
,,,CCCCCCNCC(O)(Cn1ccnc1)c1ccc(Cl)cc1Cl (stereo not drawn) [CH3-(CH2)5-NH-],1.52,1.75x10^3 cell/g,,
0.6 µg/mL,2.5 µg/mL,0.3 µg/mL,CCCCCCSCC(O)(Cn1ccnc1)c1ccc(Cl)cc1Cl (stereo not drawn) [CH3-(CH2)5-S-],,,,

MIC (Trichophyton rubrum),MIC (Candida albicans Ohta),MIC [1],SMILES,log reduction at 20 mg/kg (Candida albicans KB-8; [2]),"Medicated group, number of cells in kidney (Candida albicans KB-8; dose 20 mg/kg per os)","log reduction at 100 mg/kg (Candida albicans KB-8; Candida albicans, KB8, po, 24 h, read-out: Medicated/Non-medicated (logarithmic value))","Medicated group, number of cells in kidney (Candida albicans KB-8; dose 100 mg/kg per os)"
0.3 µg/mL,1.25 µg/mL,0.15 µg/mL,CCCCCCCCSCC(O)(Cn1ccnc1)c1ccc(Cl)cc1Cl (stereo not drawn) [CH3-(CH2)7-S-],,,,
,,,"Clc1ccc(COC(Cn2ccnc2)c2ccc(Cl)cc2Cl)c(Cl)c1 (stereo not drawn) [Miconazole, 1-[2,4-Dichloro-β-(2,4-dichlorobenzyloxy)phenylethyl]imidazole, reference compound]",,,0.8,2.96x10^4 cell/g
,40 to 100 µg/mL,40 to 100 µg/mL,"OC(CNCc1ccccc1)(Cn1ccnc1)c1ccc(Cl)cc1Cl (stereo not drawn) [the 5th table, row 0]",,,,
40 to 100 µg/mL,40 to 100 µg/mL,40 to 100 µg/mL,"OCCNCC(O)(Cn1ccnc1)c1ccc(Cl)cc1Cl (stereo not drawn) [the 5th table, row 1]",,,,
40 to 100 µg/mL,40 to 100 µg/mL,40 to 100 µg/mL,"OC(CNCCN1CCOCC1)(Cn1ccnc1)c1ccc(Cl)cc1Cl (stereo not drawn) [the 5th table, row 2]",,,,
40 to 100 µg/mL,40 to 100 µg/mL,40 to 100 µg/mL,"OC(CNCc1ccco1)(Cn1ccnc1)c1ccc(Cl)cc1Cl (stereo not drawn) [the 5th table, row 3]",,,,
40 to 100 µg/mL,40 to 100 µg/mL,40 to 100 µg/mL,"OC(CNCC1CCCO1)(Cn1ccnc1)c1ccc(Cl)cc1Cl (stereo not drawn) [the 5th table, row 4]",,,,
40 to 100 µg/mL,40 µg/mL,2.5 µg/mL,"CN1CCN(CC(O)(Cn2ccnc2)c2ccc(Cl)cc2Cl)CC1 (stereo not drawn) [the 5th table, row 5]",,,,
0.6 µg/mL,20 µg/mL,5 µg/mL,"OC(CN1CCN(c2ccccc2)CC1)(Cn1ccnc1)c1ccc(Cl)cc1Cl (stereo not drawn) [the 5th table, row 6]",,,,
20 µg/mL,40 to 100 µg/mL,40 to 100 µg/mL,"OC(CN1CCN(Cc2ccccc2)CC1)(Cn1ccnc1)c1ccc(Cl)cc1Cl (stereo not drawn) [the 5th table, row 7]",,,,
,,,"OC(CNCc1ccccc1)(Cn1ccnc1)c1ccc(Cl)cc1Cl (stereo not drawn) [the 6th table, row 5]",1.6,4.17x10^3 cell/g,,
,,,"OCCNCC(O)(Cn1ccnc1)c1ccc(Cl)cc1Cl (stereo not drawn) [the 6th table, row 6]",1.58,1.91x10^3 cell/g,,
,,,"OC(CNCCN1CCOCC1)(Cn1ccnc1)c1ccc(Cl)cc1Cl (stereo not drawn) [the 6th table, row 7]",1.23,9.78x10^3 cell/g,,
,,,"OC(CNCc1ccco1)(Cn1ccnc1)c1ccc(Cl)cc1Cl (stereo not drawn) [the 7th table, row 3]",1.05,5.13x10^3 cell/g,,
,,,"OC(CNCC1CCCO1)(Cn1ccnc1)c1ccc(Cl)cc1Cl (stereo not drawn) [the 7th table, row 4]",1.01,5.62x10^3 cell/g,,
,,,"CN1CCN(CC(O)(Cn2ccnc2)c2ccc(Cl)cc2Cl)CC1 (stereo not drawn) [the 7th table, row 5]",1.59,8.32x10^3 cell/g,,
,,,"OC(CN1CCN(c2ccccc2)CC1)(Cn1ccnc1)c1ccc(Cl)cc1Cl (stereo not drawn) [the 7th table, row 6]",1.58,1.52x10^3 cell/g,,
,,,"OC(CN1CCN(Cc2ccccc2)CC1)(Cn1ccnc1)c1ccc(Cl)cc1Cl (stereo not drawn) [the 7th table, row 7]",1.15,4.09x10^3 cell/g,,
